The values below come from patent US9261497B2, “Method of treating cancer with modulators of SCFSkp2” (New York University, priority 2012, dated 2016).

In one assay the test system is p27 in ECC-1 cells. Nature of the assay: p27 immunoblot in ECC-1 cells (whole cell lysates, nuclear and cytoplasmic fractions). To be noted: for Block of E2-induced decrease of p27: ECC-1, control siRNA transfected, 1 nM E2 plus 1 μM Lactacystin or 10 nM ICI 182,780.
Another assay relates to ECC-1 cells. In words: ECC-1 cell proliferation (MTS assay). The conditions noted are these: Lactacystin-treated cells. Format: cell-based, human.
Assay [1] deals with p27 in 501 Mel, SK-MEL-147, and SK-MEL-173. In words: Immunoblot of steady state protein levels in metastatic melanoma cell lines. Type of assay: cell-based, human. The conditions noted are these: 501 Mel cells; 400 nM. On the procedure: 501 Mel cells were also treated with MG-132 (a proteasome inhibitor) to confirm that p27 and p21 induction were responsive to known UPS inhibitors (FIG. 4A, right). […] Thus, treatment of cells with inhibitors targeting the Skp2-Cks1 interface induces protein levels of specific Skp2-Cks1 substrates.
Whole cell extracts were prepared and immunoblotted as previously described Dorrello et al., “S6K1- and betaTRCP-mediated Degradation of PDCD4 Promotes Protein Translation and Cell Growth,” Science 314:467-471 (2006), which is hereby incorporated by reference in its entirety. For knockdown of Skp2 or p27, shRNAs were induced with 2 ng/ml doxycycline for 48 hours, with the last 16 hours co-treated with 0.1% Vehicle or 10 μM inhibitors as indicated. For cycloheximide chase, cells were pretreated 16 h with 0.1% Vehicle or 10 μM inhibitors, followed by 20 ng/ml cycloheximide (Sigma) and whole cell extracts collected for each time point. […] Scanning densitometry was performed on immunoblots using Image J software. For cell cycle analysis, cells were treated with 0.1% Vehicle or 10 μM inhibitors for 16 h. 1×10^6 cells were fixed in 70% ethanol for 2 h, treated with 200 μg/ml RNase A (Invitrogen) for 30 minutes, and stained with 20 μg/ml Propidium Iodine (Sigma). All samples were assayed in triplicates. Signal was detected using the Becton Dickson LSRII flow cytometer and cell cycle profiles were analyzed with FloJo.

For the next assay, the target named is T1, His-6Skp1-Skp2-Cks1 (Homo sapiens, UniProt P61024+Q13309).
T1 construct: His6-tagged human Skp2 (residues 89-424); Human full-length Cks1 was produced as described; made in house
T1 sequence (Q13309 89-424 limits assumed): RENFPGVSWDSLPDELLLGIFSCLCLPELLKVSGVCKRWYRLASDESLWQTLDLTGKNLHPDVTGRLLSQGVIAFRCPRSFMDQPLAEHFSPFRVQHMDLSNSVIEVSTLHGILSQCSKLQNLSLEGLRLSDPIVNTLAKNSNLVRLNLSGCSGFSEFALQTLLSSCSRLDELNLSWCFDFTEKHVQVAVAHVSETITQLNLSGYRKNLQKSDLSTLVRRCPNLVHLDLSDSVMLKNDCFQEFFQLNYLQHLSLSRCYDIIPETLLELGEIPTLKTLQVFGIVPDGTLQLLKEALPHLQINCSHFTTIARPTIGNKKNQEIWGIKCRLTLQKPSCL
T1 sequence (P61024 whole entry, the tested form may be a part): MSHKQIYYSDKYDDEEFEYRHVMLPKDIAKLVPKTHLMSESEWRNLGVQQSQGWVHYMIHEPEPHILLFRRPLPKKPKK
In words: Differential scanning fluorimetry (protein melt). Type of assay: binding. The conditions noted are these: compound 75 μM; protein 1.5 μM. On the procedure:
Protein melt assays were carried out following the manufacturer's protocol on the LightCycler 480 System II (Roche) using Sypro Orange dye (Sigma). Fluorescence (465 nm excitation/580 nm detection) was acquired (10 data points/sec) at a ramp rate of 0.06° C./sec between 20° C. and 85° C. Melting temperatures were calculated using the LightCycler 480 Protein Melt analysis tool (Roche).

Another assay concerns the target T2, Skp2-p27 interaction (Homo sapiens, UniProt P61024+Q13309).
T2 construct: made in house; host or cells: cell-free: rabbit reticulocyte lysate (TNT T7 Coupled Reticulocyte Lysate System, Promega) from pcDNA3.1 plasmids
Nature of the assay: p27 binding to HA-Skp2 (HA-immunoprecipitation). The conditions noted are these: 10 μM; HA-Skp2 and Cks1 pretreated before p27-pT187; without ubiquitylation. On the procedure:
In vitro ubiquitylation assays were incubated with anti-HA affinity matrix (Roche) in IP buffer (50 mM Tris pH 7.6, 150 mM NaCl, 0.1% NP40, and Roche Complete EDTA-free protease tablet) for 16 h at 4° C. Beads were washed 3× with IP buffer and eluted with 2×SDS Sample Buffer (Boston Bioproducts) and 10% Beta-mercaptoethanol. For binding without ubiquitylation, HA-Skp2 IVT (10 μl) and Cks1 IVT (10 μl) were preincubated with anti-HA affinity matrix in IP buffer for 2 hours, with the addition of p27 kinase reaction (10 μl) for another 16 h incubation at 4° C. All reactions were analyzed after SDS/PAGE by western blotting. Where indicated, Skp2 and Cks1 were pretreated with 10 μM inhibitors for 30 minutes. Kinase reactions were performed with p27 IVT (10 μl) and 0.5 μg/ul CyclinE/CDK2 in kinase buffer (50 mM Tris HCL pH 7.5, 10 mM MgCl2, 2 mM ATP, 2.5 μM Okadaic Acid, and 0.6 mM DTT) at 30° C. for 1 h.

In another assay the target is T3, SCF-Skp2 (Skp2-Cks1) (Homo sapiens, UniProt P61024+Q13309).
T3 construct: made in house; host or cells: cell-free: rabbit reticulocyte lysate (TNT T7 Coupled Reticulocyte Lysate System, Promega) from pcDNA3.1 plasmids
T3 sequence (Q13309 whole entry): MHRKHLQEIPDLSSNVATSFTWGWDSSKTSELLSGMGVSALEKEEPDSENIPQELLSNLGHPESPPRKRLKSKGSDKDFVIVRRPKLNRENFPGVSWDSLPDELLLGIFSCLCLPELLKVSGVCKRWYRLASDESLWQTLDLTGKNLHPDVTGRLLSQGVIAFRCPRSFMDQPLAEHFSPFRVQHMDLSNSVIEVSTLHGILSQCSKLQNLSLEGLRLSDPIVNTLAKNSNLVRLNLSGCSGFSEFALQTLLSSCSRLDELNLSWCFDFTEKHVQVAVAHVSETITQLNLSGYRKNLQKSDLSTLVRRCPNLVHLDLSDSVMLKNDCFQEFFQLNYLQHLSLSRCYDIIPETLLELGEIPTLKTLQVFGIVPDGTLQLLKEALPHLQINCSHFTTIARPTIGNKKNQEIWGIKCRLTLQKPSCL
T3 sequence (P61024 whole entry): as the sequence (P61024 whole entry, the tested form may be a part) above
T3 sequence (P63208 whole entry partner): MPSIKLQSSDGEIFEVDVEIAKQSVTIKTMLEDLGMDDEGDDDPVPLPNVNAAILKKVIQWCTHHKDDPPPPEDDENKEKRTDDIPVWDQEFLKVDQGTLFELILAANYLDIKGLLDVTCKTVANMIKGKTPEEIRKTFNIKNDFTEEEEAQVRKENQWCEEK
T3 sequence (Q13616 whole entry partner): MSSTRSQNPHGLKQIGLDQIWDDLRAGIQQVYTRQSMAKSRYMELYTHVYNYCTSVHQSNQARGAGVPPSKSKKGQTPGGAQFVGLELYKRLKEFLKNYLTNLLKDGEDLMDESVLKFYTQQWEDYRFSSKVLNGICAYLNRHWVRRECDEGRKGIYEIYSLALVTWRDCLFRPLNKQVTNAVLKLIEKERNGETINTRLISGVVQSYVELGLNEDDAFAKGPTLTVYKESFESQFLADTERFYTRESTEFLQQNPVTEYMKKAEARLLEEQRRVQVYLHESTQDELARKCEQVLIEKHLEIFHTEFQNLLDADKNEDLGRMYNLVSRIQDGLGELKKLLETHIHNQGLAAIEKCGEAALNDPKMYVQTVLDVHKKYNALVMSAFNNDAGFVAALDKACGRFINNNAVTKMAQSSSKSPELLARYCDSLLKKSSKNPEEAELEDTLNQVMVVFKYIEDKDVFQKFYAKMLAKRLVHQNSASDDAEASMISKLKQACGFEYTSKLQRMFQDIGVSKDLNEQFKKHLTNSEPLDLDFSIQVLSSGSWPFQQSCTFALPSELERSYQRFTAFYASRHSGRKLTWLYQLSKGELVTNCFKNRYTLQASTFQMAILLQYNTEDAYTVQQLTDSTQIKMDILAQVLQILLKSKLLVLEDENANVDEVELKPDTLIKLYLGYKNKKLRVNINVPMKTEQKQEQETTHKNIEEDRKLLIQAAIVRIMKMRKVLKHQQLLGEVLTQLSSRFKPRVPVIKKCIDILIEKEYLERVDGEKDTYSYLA
T3 sequence (P62877 whole entry partner): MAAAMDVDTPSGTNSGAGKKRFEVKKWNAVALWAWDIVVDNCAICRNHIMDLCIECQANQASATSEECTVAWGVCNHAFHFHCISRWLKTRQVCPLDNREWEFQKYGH
Nature of the assay: In vitro ubiquitylation assay, Skp2-mediated p27 ubiquitylation (Wild-Type Cks1). Type of assay: biochemical. To be noted: 50 μM compound, immunoblot for p27-(Ub)n. How it is done:
The 96 hits were tested in an in vitro ubiquitylation assay driven by in vitro transcribed/translated Skp2, Cks1, and p27 (Sitry et al., “Three Different Binding Sites of Cks1 are Required for p27-ubiquitin Ligation,” J. Biol. Chem. 277:42233-42240 (2002)). Assay sensitivity was established for various criteria (FIG. 1B): Enhanced ubiquitylation with Cks1 (lane 2), kinase activity requirement (lane 3), and responsiveness to known inhibitors of Cullin (lane 5) or Cdk2 (lane 6) activity (Meijer et al., “Biochemical and Cellular Effects of Roscovitine, a Potent and Selective Inhibitor of the Cyclin-dependent Kinases cdc2, cdk2 and cdk5,” Eur. J. Biochem. 243:527-536 (1997); Soucy et al., “An Inhibitor of NEDD8-activating Enzyme as a New Approach to Treat Cancer,” Nature 458:732-736 (2009), which are hereby incorporated by reference in their entirety). Compounds showing at least 50% inhibition of Skp2-mediated p27 ubiquitylation (FIG. 1C) were counter-screened for inactivity against two anti-target E3 ligases: MDM2 and SCF-βTrCP (FIGS. 6A-B). Compounds C1 and C2 were identified from the primary VLS and C16 and C20 were identified from a second VLS (FIG. 2).
In vitro reconstituted assays were performed as previously described (Dorrello et al., “S6K1- and betaTRCP-mediated Degradation of PDCD4 Promotes Protein Translation and Cell Growth,” Science 314:467-471 (2006), which is hereby incorporated by reference in their entirety) with the exceptions of the use of (1) unlabeled proteins (wild-type and mutant Skp2 and Cks1, p27, Flag-βTrCP, and HA-PDCD4) generated by in vitro transcription-translation (TNT T7 Coupled Reticulocyte Lysate System, Promega); (2) chain elongation with non-methylated ubiquitin; and (3) immunoblotting to detect poly-ubiquitylation. The following reagents were obtained from Boston Biochem: UBE1, His-UbcH3, His-UbcH5c, Ubiquitin, and Ubiquitin Aldehyde. Additional reagents include CDK2/CyclinE1 (Sigma-Aldrich), S6K (Invitrogen), Okadaic acid (Sigma), and DMSO (Sigma-Aldrich). For ubiquitin charging, UBE1 (100 nM) and His-UbcH3 (10 ng/μl) were incubated with ubiquitin (2.5 μg/μl), ATP (2 mM), and 10 μM […] of inhibitors or Vehicle control for 60 min at 30° C. Reactions were stopped in nondenaturing 2× Sample Buffer, with the addition of 10% Beta-mercaptoethanol as indicated, and analyzed by Western blotting.

Each structure is given as a SMILES string.

T2 sequence (Q13309 whole entry): as the sequence (Q13309 whole entry) above
T2 sequence (P61024 whole entry): as the sequence (P61024 whole entry, the tested form may be a part) above
T2 sequence (P63208 whole entry partner): as the sequence (P63208 whole entry partner) above
T2 sequence (Q13616 whole entry partner): as the sequence (Q13616 whole entry partner) above
T2 sequence (P62877 whole entry partner): as the sequence (P62877 whole entry partner) above
Description for p27 in ECC-1 cells: The endometrial carcinoma cell line (derived from a well-differentiated endometrioid Type I ECA) ECC-1 cells (ATCC, Manassas, Va.) were plated at a density of 3×10^5/well/6-well plate and grown in DMEM:F12 supplemented with 10% FBS (BioWest, Ocala, Fla.). The cell line was passaged in the laboratory for fewer than 6 months after receipt. […] ECAs were plated at a density of 2.2×10^6 cells/6-well Primaria® plates (BD Biosciences, San Jose, Calif.) in McCoys 5A media without phenol red containing 10% charcoal-stripped FBS, 2 mM L-Glutamine (Invitrogen) and antimycotic antibiotic solution (Mediatech, Hendon, Va.).
For subcellular fractionation, following treatments, cells were separated into nuclear and cytoplasmic fractions using the NE-PER kit (Thermo Scientific), and 10 μg cytoplasmic and nuclear protein fractions were loaded onto SDS-PAGE for immunoblotting. […] The membranes were incubated with peroxidase-conjugated goat anti-rabbit or goat anti-mouse secondary antibodies in TBST (1:2000; Thermo Scientific). […] Protein bands were resolved using the SuperSignal West Dura kit (Thermo Scientific), visualized by exposure to X-ray film (HyBlot; Denville Scientific, Denville, N.J.), and following densitometric scanning (Kodak Logic-100), the protein bands were quantified by normalizing to β-actin and compared to the untreated control, and the values represented by the graphs of relative protein levels compared to actin in each well and shown as % of Vehicle control.

With `C[C@]12CC[C@@H]3c4ccc(O)cc4C[C@@H](CCCCCCCCC[S+]([O-])CCCC(F)(F)C(F)(F)F)[C@H]3[C@@H]1CC[C@@H]2O` (some centres unmarked) [ICI 182,780, reference compound], the “Block of E2-induced decrease of p27” value in the assay on p27 in ECC-1 cells (18 h) is recorded as “nearly completely blocked”. For the same compound, the “Effect on E2-induced decrease in nuclear p27” value with p27 in ECC-1 cells (ECC-1, E2 plus 10 nM ICI 182,780, 18 h) is reported as “to the level of untreated control”.
With `CC(=O)N[C@@H](CSC(=O)[C@]1([C@@H](O)C(C)C)NC(=O)[C@H](C)[C@@H]1O)C(=O)O` [Lactacystin, reference compound], the “p27 in nuclear and cytoplasmic fractions” value with p27 in ECC-1 cells (ECC-1 (FIG. 11D)) is on record as “increases p27 in both subcellular fractions”. For the same compound, the “Block of E2-induced decrease of p27” value in the assay on p27 in ECC-1 cells (18 h) is listed as “completely blocked”. For the same compound, in the assay on ECC-1 cells, the Inhibition of proliferation worked out at 36%.
In the case of `NS(=O)(=O)OC[C@@H]1C[C@@H](n2ccc3c(N[C@H]4CCc5ccccc54)ncnc32)C[C@@H]1O` [MLN-4924, reference compound], the “Neddylation of Cul1” value in assay [1] is listed as “inhibited neddylation of Cul1”.
`COc1cccc(-c2cc(=O)c3ccccc3o2)c1N` [PD 98059, PD98059, reference compound]: the “p27 less than control” value with p27 in ECC-1 cells (ECC-1, E2 plus 20 μM PD98059, 18 h) was determined as 24%.
`COc1ccc(Br)cc1C=C1SC(=S)N(Cc2cccnc2)C1=O` [UM-C1, reference compound]: the “Shift of melting temperature (Tm) of purified protein complex” value at His-6Skp1-Skp2-Cks1 is “not”. Besides, the “p27 binding to Skp2” value at Skp2-p27 interaction was “lost the ability to inhibit p27 from binding to Skp2”.
In the case of `COCCCN1C(=O)C(=Cc2ccccc2O)C(C(=O)OC)=C1C` [UM-C2a, reference compound], on SCF-Skp2 (Skp2-Cks1), the “Inhibition of Skp2-mediated p27 ubiquitylation” value is “partially reduced p27 ubiquitylation”.
Turning to `CCN1C(=O)C(=Cc2ccccc2O)C(C(=O)OC)=C1C` [UM-C2b, reference compound], the “p27 binding to Skp2” value at Skp2-p27 interaction was “lost the ability to inhibit p27 from binding to Skp2”.
